Measured values published in patent US20130142877A1, “PHARMACEUTICAL DOSAGE FORM COMPRISING ONE OR MORE ANTIRETROVIRAL ACTIVE INGREDIENTS” (EVONIK ROEHM GmbH, priority 2010, published 2013).

Test: Crystallinity analysis by X-ray diffraction (XRD)
Type: physicochemical
Details: pure API or extrudate after melt extrusion
Experimental: The mixtures of examples 1 to 4 were extrudated, comminuted and subsequently sifted through a sieve of 40 mesh (0.42 mm) and analyzed. X-ray diffraction analysis was carried out for crytallinity. Dissolution rate analysis of both active compound was carried out to check solubility enhancement.

Row | SMILES | Crystallinity by X-ray diffraction (XRD pattern)
1 | CC(C)c1nc(CN(C)C(=O)N[C@H](C(=O)N[C@@H](Cc2ccccc2)C[C@H](O)[C@H](Cc2ccccc2)NC(=O)OCc2cncs2)C(C)C)cs1 [Ritonavir] | crystalline form
2 | Cc1cccc(C)c1OCC(=O)N[C@@H](Cc1ccccc1)[C@@H](O)C[C@H](Cc1ccccc1)NC(=O)[C@H](C(C)C)N1CCCNC1=O [Lopinavir] | crystalline form
